Residues, ends and D or L forms follow the SMILES beside them.
What was measured:
Assay type in all cases: cell-based
[1] = test system: oral bacteria; test: pH of glucose solution incubated with oral bacteria suspension, Sets I-IV; conditions: 37° C., 3.3 mM
[2] = test system: oral bacteria; test: as above; conditions: 37° C.; for pH at 0 minutes: 0 time when bacteria added, test substance 3.3 mM in combined composition
Procedure: Experiments were performed in vitro using supernatant saliva. The saliva was obtained from random donors whose salivary secretions were paraffin block stimulated. The saliva donations were pooled before and after sediment removal.
Four sets of three 10×75 mm test tubes were provided with 0.2 ml of 8.4 mM (millimolar) of aqueous glucose solution. Set I was provided with 0.2 ml of pooled supernatant saliva. Set II was provided with 0.2 ml of 9.9 mM of the peptide glycine-glycine-arginine. Set III was provided with 0.2 ml of 9.9 mM arginine. Set IV was provided with 0.2 ml of distilled water. Sequentially 0.2 ml of a 50:50 aqueous suspension of oral bacteria was added to each test tube. The concentration of the peptide in the combined composition was 3.3 mM. The prepared test tubes were kept at 37° C. in a water bath. pH readings were taken at 0 time when the bacteria was added and at 15, 30, 45, 60, 90, 120, 180 and 240 minutes.

[3] = test system: salivary sediment; test: pH fall and rise with individual peptides of 2-4 amino acid units in salivary sediment-glucose mixture; conditions: for pH rising to / pH drop to: salivary sediment 16.7% (v/v), glucose 2.8 mM, peptide 3.3 mM; for pH rising to: measured through the fourth hour; for pH drop to: pH starts slightly above 7
Procedure: Four sets of three 10×75 mm test tubes were provided with 0.2 ml of 8.4 mM (millimolar) of aqueous glucose solution. Set I was provided with 0.2 ml of pooled supernatant saliva. […] Set IV was provided with 0.2 ml of distilled water. […] The concentration of the peptide in the combined composition was 3.3 mM. […] The pH values are as follows: Extensive testing of individual peptides of 2-4 amino acid units as could reasonably be obtained or synthesized was done. The tests were carried out under the same conditions as Sets I-IV. The salivary sediment was present in an amount of 16.7% (v/v), glucose 2.8 mM and the peptide 3.3 mM in the final composition. Duplicate runs without peptide were run parallel to the others as a double check. […] An effective pH rise factor begins to reverse the fall within the first hour. Measurement continues through the fourth hour.

SMILES | pH at 39 minutes [1] | pH at 0 minutes [2] | pH at 15 minutes ([2]; 3.3 mM) | pH at 45 minutes ([2]; 3.3 mM) | pH at 60 minutes ([2]; 3.3 mM) | pH at 90 minutes ([2]; 3.3 mM) | pH at 120 minutes ([2]; 3.3 mM) | pH at 180 minutes ([2]; 3.3 mM) | pH at 240 minutes ([2]; 3.3 mM) | pH at 39 minutes ([2]; 39 minutes, 3.3 mM) | pH rising to [3] | pH drop to [3] | effectiveness as pH rise factor [3]
N=C(N)NCCC[C@H](N)C(=O)O [Set III, arginine, reference compound] | 5.4 | 7.3 | 5.8 | 5.2 | 4.9 | 5.0 | 5.0 | 5.3 | 5.8 |  |  |  | 
N=C(N)NCCC[C@H](N)C(=O)O.NCC(=O)O.NCC(=O)O [Gly-Gly-Arg, glycine-glycine-arginine] |  | 7.4 | 6.8 | 6.4 | 6.6 | 6.6 | 6.7 | 7.2 | 7.6 | 6.6 | 7.5 | 5.5 | 
N=C(N)NCCC[C@H](NC(=O)[C@H](CCCCN)NC(=O)CNC(=O)CN)C(=O)O [Gly-Gly-Lys-Arg, H-glycine-glycine-lysine-arginine-OH] (H-GGKR-OH) |  |  |  |  |  |  |  |  |  |  | 8.4 | 6.4 | proven effective

Reference: patent US4225579A, “Means and method for improving defenses against caries” (priority 1979, dated 1980)
